The source of these data is ChEMBL document CHEMBL1201862, “PubChem BioAssay data set” (2004).

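The compound was tested at five concentrations on cells cultured in 96-well plates, with a 48-hour exposure period. Here, GI50 denotes the concentration required for 50% inhibition of growth.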 Active and inactive are the calls of the source. Rule as the data show it: active = GI50 up to about 1.1 µM and inactive = higher.

Some test systems named below: SNB-19; NCI-H522; MDA-MB-435; HCT-15; HOP-62; T47D; LOX IMVI; SF-268; UO-31; HT-29; SK-MEL-2; NCI-H460; NCI/ADR-RES; HCT-116; RPMI-8226; TK-10; U-251; SK-MEL-5; HCC 2998; SK-OV-3.
Holding throughout (assay): growth of human tumour cells (NCI), 48 h

With `O=C1C=CC(=O)c2c1cc([N+](=O)[O-])c1ccoc21`, the GI50 was 21.5 µM (inactive) in the assay on SNB-19; 2.07 µM (inactive) in the assay with NCI-H522; 11.7 µM (inactive) in the assay on MDA-MB-435; 23.3 µM in the assay on HCT-15; 16.5 µM (inactive) in the assay with HOP-62; 2.8 µM (inactive) in the assay with T47D. Besides, the GI50 in the assay with LOX IMVI is 9.66 µM (inactive); in the assay with SF-268, 26.2 µM (inactive); with UO-31 it was 3.01 µM (inactive); with HT-29, 17.3 µM (inactive); in the assay with SK-MEL-2, 18.4 µM (inactive); in the assay on NCI-H460, 18.2 µM (inactive). In addition, the GI50 was 22.6 µM (inactive) in the assay with NCI/ADR-RES; 6.03 µM (inactive) in the assay on HCT-116; 4.37 µM (inactive) with RPMI-8226; 2.18 µM (inactive) in the assay on TK-10; 18.5 µM (inactive) in the assay on U-251; 16.4 µM (inactive) in the assay with SK-MEL-5. Also, the GI50 with HCC 2998 was 19.5 µM (inactive); with SK-OV-3 it was 20.4 µM (inactive).

As for `COC(=O)Nc1nc2cc(C(=O)c3ccc[nH]3)ccc2[nH]1`, the GI50 in the assay on SNB-19 is 1.19 µM (inactive); in the assay with NCI-H522, 0.402 µM (active); in the assay on MDA-MB-435, 0.117 µM (active); with HCT-15 it was 0.319 µM; in the assay with HOP-62, 1.44 µM (inactive); with T47D, 0.959 µM (active). For the same molecule, the GI50 is 0.462 µM (active) with LOX IMVI; 2.04 µM (inactive) in the assay on SF-268; 1.21 µM (inactive) with UO-31; 0.415 µM (active) in the assay on HT-29; 0.353 µM (active) in the assay with SK-MEL-2; 0.596 µM (active) with NCI-H460. Also, the GI50 in the assay on NCI/ADR-RES was 0.465 µM (active); with HCT-116, 0.267 µM (active); in the assay on RPMI-8226, 0.49 µM (active); with TK-10, 1.67 µM (inactive); in the assay on U-251 it was 0.721 µM (active); in the assay with SK-MEL-5, 0.282 µM (active). Also, the figures for the GI50 in the assay on HCC 2998 and with SK-OV-3 were 2.55 µM (inactive) and 2.03 µM (inactive), respectively.

On to `O=C(SC1=NCCN1)c1cccc2ccccc12`, for which the GI50 was > 100 µM (inactive) in the assay on SNB-19; 19.5 µM (inactive) with NCI-H522; 53.5 µM (inactive) with MDA-MB-435; 48.6 µM in the assay with HCT-15; 55 µM (inactive) in the assay with HOP-62; 44.9 µM (inactive) in the assay on T47D. Further, the GI50 in the assay with LOX IMVI is > 100 µM (inactive); in the assay with SF-268, > 100 µM (inactive); in the assay with UO-31 it was 42.9 µM (inactive); with HT-29 it was 38.6 µM (inactive); in the assay on SK-MEL-2, > 100 µM (inactive); with NCI-H460, 62.5 µM (inactive). The GI50 was 31.6 µM (inactive) in the assay on NCI/ADR-RES; 41 µM (inactive) in the assay with HCT-116; 27.8 µM (inactive) in the assay on RPMI-8226; > 100 µM (inactive) in the assay on TK-10; 45.5 µM (inactive) in the assay with U-251; 66.5 µM (inactive) in the assay on SK-MEL-5. In addition, the GI50 in the assay with HCC 2998 is > 100 µM (inactive); with SK-OV-3, 44.5 µM (inactive).

`C[N+](C)(C)CC(=O)N/N=C(\C(=O)NC1=C(Cl)C(=O)c2ccccc2C1=O)C(C#N)c1nc(-c2ccc([N+](=O)[O-])cc2)cs1` (stereo not given): the GI50 in the assay on SNB-19 was 12.9 µM (inactive); with NCI-H522, 7.31 µM (inactive); with MDA-MB-435 it was 1.87 µM (inactive); in the assay with HCT-15, 5.36 µM; in the assay with HOP-62, 12.7 µM (inactive); in the assay with T47D, 5.85 µM (inactive). Also, the GI50 with LOX IMVI is 1.69 µM (inactive); in the assay with SF-268, 12.3 µM (inactive); in the assay with UO-31, 15.6 µM (inactive); in the assay on HT-29, 8.38 µM (inactive); in the assay on SK-MEL-2 it was 4.46 µM (inactive); with NCI-H460, 4.31 µM (inactive). For the same molecule, the GI50 in the assay on NCI/ADR-RES is 11.7 µM (inactive); in the assay on HCT-116 it was 5.78 µM (inactive); with RPMI-8226, 6.53 µM (inactive); in the assay with TK-10, 31 µM (inactive); in the assay on U-251, 6.97 µM (inactive); in the assay on SK-MEL-5, 1.13 µM (inactive). Also, the GI50 with HCC 2998 was 14.1 µM (inactive); in the assay on SK-OV-3 it was 21.1 µM (inactive).
